Measurements from patent US20080311126A1, “Antisense Oligonucleotides Directed to Ribonucleotide Reducatase R2 and Uses Thereof in Combination Therapies for the Treatment of Cancer” (Genesense Technologies, Inc, priority 2004, published 2008).
Oligonucleotides are written 5' to 3', each unit as a sugar letter and its base; * is a phosphorothioate linkage, no mark a phosphodiester; rarer units and linkages stand in square brackets, end groups in braces. Plain capitals give the bases only. d = 2'-deoxy (DNA)

How the values were obtained:
[1] = tested on: PC-3 human prostatic cancer cells; test: PC-3 prostatic tumour xenograft in SCID mice; assay type: in vivo
Protocol: In both experiments, PC-3 human prostatic cancer cells (1×10^7 cells in 100 μl of PBS) were subcutaneously injected into the right flank of 6-7 weeks old male SCID mice. After the size of tumour reached an approximate volume of 50 mm^3, 14 days post tumour cell injection, SEQ ID NO:1 was administered by bolus infusion into the tail vein every other day at 10 mg/kg 18 times (FIG. 14A) or 17 times (FIG. 14B), respectively. Control animals received saline alone for the same period. Antitumour effect of SEQ ID NO:1 was further compared to that of mitoxantrone (Novantrone®) alone or in combination. Mitoxantrone was administered intravenously once at the beginning of the treatments at a dose of 2 mg/kg (FIG. 14A) or once a week for four weeks at a reduced dose of 0.8 mg/kg (FIG. 14B). All treatments were stopped at day 50 (FIG. 14A) or 48 (FIG. 14B), respectively. A day after the last treatment, tumours were excised from the animals and their weights were measured.

[2] = tested on: DU145 human prostatic cancer cells; test: DU145 prostatic tumour xenograft in SCID mice; assay type: in vivo; settings: for Tumour weight as % of saline control: DU145 (prostatic), Mouse SCID
Protocol: In both experiments, DU145 human prostatic cancer cells (1×10^7 cells in 100 μl of PBS) were subcutaneously injected into the right flank of 6-7 weeks old male SCID mice. After the size of tumour reached an approximate volume of 50 mm^3, 13 FIG. 15A) or 11 (FIG. 15B) days post tumour cell injection, SEQ ID NO:1 was administered by bolus infusion into the tail vein every other day at 10 mg/kg 15 times (FIG. 15A) or 14 times (FIG. 15B), respectively. Control animals received saline alone for the same period. Antitumour effect of SEQ ID NO:1 was further compared to that of mitoxantrone (Novantrone®) alone or in combination. Mitoxantrone was administered intravenously once at the beginning of the treatments at a dose of 2 mg/kg (FIG. 15A) or once a week for four weeks at a reduced dose of 0.8 mg/kg (FIG. 15B). All treatments were stopped at day 42 (FIG. 15A) or 38 (FIG. 15B); respectively. A day after the last treatment, tumours were excised from the animals and their weights were measured.

Hela S3 cells = test: Relative colony forming efficiency, lipofectin +/- oligonucleotide 4 hours; assay type: cell-based, human; settings: Hela S3 cervix carcinoma cells; averages of 2-8 determinations
Procedure, shortened: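 Survival is given as percent of lipofectin-treated controls, scored as methylene blue-stained colonies after 7–10 days of regrowth. Beforehand, HeLa S3 cultures received a 4 h lipofectin-mediated pulse of oligonucleotide, normally at 0.2 μM.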

A549 lung cell carcinoma = test: Relative colony forming efficiency (Example 17, Table 13); assay type: cell-based, human; settings: averages of 2-8 determinations
Procedure, shortened: (§1)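 0.2 μM oligo (default) + 2.5 μg Lipofectin, 4 h exposure; methylene blue stain, colonies counted; vs lipofectin-alone control, reported as % inhibition.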

[3] = tested on: Colo320 colon cell adenocarcinoma; test: as above; assay type: cell-based, human; settings: averages of 2-8 determinations
Procedure, shortened: as §1

[4] = tested on: H596 lung adenosquamous carcinoma cells; test: as above; assay type: cell-based, human; settings: averages of 2-8 determinations
Procedure, shortened: as §1

[5] = tested on: HCT116 colon cell carcinoma; test: as above; assay type: cell-based, human; settings: averages of 2-8 determinations
Procedure, shortened: as §1

[6] = tested on: HepG2 hepatocellular carcinoma; test: as above; assay type: cell-based, human; settings: averages of 2-8 determinations
Procedure, shortened: as §1

[7] = tested on: MDA PaCa-2 pancreatic cell carcinoma; test: as above; assay type: cell-based, human; settings: MIA PaCa-2 pancreatic cell carcinoma; averages of 2-8 determinations
Procedure, shortened: as §1

[8] = tested on: MDA-MB-231 breast cell adenocarcinoma; test: as above; assay type: cell-based, human; settings: averages of 2-8 determinations
Procedure, shortened: as §1

[9] = tested on: PC-3 prostrate cell adenocarcinoma; test: as above; assay type: cell-based, human; settings: averages of 2-8 determinations
Procedure, shortened: as §1

[10] = tested on: T-47D breast ductal carcinoma; test: as above; assay type: cell-based, human; settings: averages of 2-8 determinations
Procedure, shortened: as §1

[11] = tested on: T24 bladder cell carcinoma; test: as above; assay type: cell-based, human; settings: averages of 2-8 determinations
Procedure, shortened: as §1

[12] = tested on: HT-29 human colon cancer cells; test: HT-29 colon tumour xenograft in CD-1 nude mice; assay type: in vivo; settings: HT-29 (colon); Mouse CD-1; CPT-11 study
Protocol: HT-29 human colon cancer cells (3×10^6 cells in 100 μl of PBS) were subcutaneously injected into the right flank of 6-7 weeks old female CD-1 nude mice. After the size of tumour reached an approximate volume of 50 mm^3, 4 days post tumour cell injection, mitomycin C was administered by bolus infusion into the tail vein at days 4, 11 and 18 with a dose of 3.5 mg/kg/week. Antitumour effect of mitomycin C was further compared to that of SEQ ID NO:1 in combination with mitomycin C. SEQ ID NO:1 was administered by bolus infusion into the tail vein every day at 6 mg/kg and mitomycin C was administered intravenously at days 4, 11 and 18 with a dose of 3.5 mg/kg/week, one hour after the treatments with SEQ ID NO:1. Control animals received saline alone for the same period as SEQ ID NO:1. All treatments were stopped at day 22. A day after the last treatment, tumours were excised from the animals and their weights were measured.
HT-29 human colon cancer cells (3×10^6 cells in 100 μl of PBS) were subcutaneously injected into the right flank of 5-6 week old female CD-1 nude mice. After the size of tumour reached an approximate volume of 100 mm^3, 7 days post tumour cell injection, SEQ ID NO:1 was administered by bolus infusion into the tail vein every other day at 10 mg/kg. Control animals received saline alone for the same period. Antitumour effect of SEQ ID NO:1 was further compared to that of CPT-11 alone or that of SEQ ID NO:1 in combination with CPT-11. CPT-11 was administered intraperitoneally for 5 days in a row from […] with a dose of 20 mg/kg in 100 μl saline. All treatments were stopped at day 32. A day after the last treatment, tumours were excised from the animals and their weights were measured.
HT-29 human colon cancer cells (3×10^6 cells in 100 μl of PBS) were subcutaneously injected into the right flank of 6-7 week old female CD-1 nude mice. Treatments started at day 5 post tumour cell injection, SEQ ID NO:1 and 5-FU were administered as outlined below: • Groups and treatment: • Group 1. Saline treated group: saline:0.1 ml/2 days, i.v.; • Group 2. SEQ ID NO:1 treated group: 10 mg/kg/2 days in 100 μL saline, i.v.; • Group 3. 5-FU treated group:13 mg/kg/5 days/week (one week on and one week off), i.v.; • Group 4. SEQ ID NO:1 plus 5-FU treated group.
HT-29 human colon cancer cells (3×10^6 cells in 100 μl of PBS) were subcutaneously injected into the right flank of 5-6 week old female CD-1 nude mice. Treatments started 4 days post tumour cell injection, SEQ ID NO: 1 and Capecitabine were administered as outlined below: • Group and Treatment: • Group 1: treated with 0.2 ml vehicle solution for capecitabine, o.p.; • Group 2: treated with 0.1 ml saline, i.v.; • Group 3: treated with 359 mg/kg/day×5/w Capecitabine in 0.2 ml vehicle solution, o.p.; • Group 4: treated with 10 mg/kg/2 days SEQ ID NO:1 in 0.1 ml saline i.v.; • Group 5: treated with 10 mg/kg/2 days SEQ ID NO:1 in 0.1 ml saline, i.v. plus 359 mg/kg/day×5/w capecitabine in 0.2 ml vehicle solution, o.p.

[13] = tested on: LS513 multi-drug resistant colon carcinoma cells; test: LS513 multi-drug resistant colon carcinoma xenograft in SCID mice; assay type: in vivo, human; settings: LS513 (colon) multi-drug resistant (CPT-11 sensitive); SCID
Protocol: LSS13 multi-drug resistant colon carcinoma cells (1×10^7 cells in 100 μl of PBS) were subcutaneously injected into the right flank of 6-7 weeks old female SCID mice. After the size of tumour reached an approximate volume of […], 8 days post tumour cell injection, SEQ ID NO:1 was administered by bolus infusion into the tail vein every other day at 10 mg/kg. Control animals received saline alone for the same period. Antitumour effect of SEQ ID NO:1 was further compared to that of CPT-11 alone or in combination. CPT-11 was administered i.p. for 5 days at a dose of 20 mg/kg/day. Antitumour activities were estimated by the inhibition of tumour volume, which was measured with caliper. Each point represents mean tumour volume calculated from 10 animals per experimental group. Tumour weights were measured after animals were sacrificed at the end of the treatment. These cells are not resistant to CPT-11 which was used as a positive control.

[14] = tested on: A2058 human melanoma cells; test: A2058 melanoma xenograft in CD-1 nude mice; assay type: in vivo; settings: A2058 (melanoma); Mouse CD-1
Protocol: A2058 human melanoma cells 1×10^7 cells in 100 μl of PBS) were subcutaneously injected into the right flank of 6-7 week old female CD-1 nude mice. A2058 is a metastatic melanoma cell line. After the size of tumour reached an approximate volume of 100 mm^3, 6 days post tumour cell injection, SEQ ID NO:1 was administered by bolus infusion into the tail vein every other day at 10 mg/kg. Control animals received saline alone for the same period. Antitumour effect of SEQ ID NO:1 was further compared to that of dacarbazine (DTIC) alone or that of SEQ ID NO:1 in combination with DTIC. DTIC was administered intravenously for 5 days in a row from day 6-10 at a dose of 80 mg/kg in 100 μl saline. All treatments were stopped at day 24. A day after the last treatment, tumours were excised from the animals and their weights were measured.

Compound: O=C1c2c(O)ccc(O)c2C(=O)c2c(NCCNCCO)ccc(NCCNCCO)c21 [Novantrone, mitoxantrone]
- antitumour effect (tumour weight) ([1]; FIG. 14B, SEQ ID NO:1 10 mg/kg 17 times, mitoxantrone 0.8 mg/kg once a week for four weeks): significant delay of tumour growth
- Tumour weight as % of saline control ([1]; PC-3 (prostatic), Mouse SCID): 57%
- Tumour weight as % of saline control ([2]; first of two value columns (two independent experiments)): 40%
- Tumour weight as % of saline control ([2]; second of two value columns (two independent experiments)): 60%
- antitumour effect (tumour weight) ([2]; FIG. 15B, SEQ ID NO:1 10 mg/kg 14 times, mitoxantrone 0.8 mg/kg once a week for four weeks): significant delay of tumour growth

Compound: GAGCAGCCAGGACAGGACGG (antisense dG*dA*dG*dC*dA*dG*dC*dC*dA*dG*dG*dA*dC*dA*dG*dG*dA*dC*dG*dG) [AS-II-151-20]
- Reduced relative colony forming efficiency, Hela S3 (% inhibition of colony forming ability) (Hela S3 cells): 66.75%
- Reduced relative colony forming efficiency, A549 (% inhibition of colony forming ability) (A549 lung cell carcinoma): 84.28%
- Reduced relative colony forming efficiency, Co1o320 (% inhibition of colony forming ability) [3]: 90.12%
- Reduced relative colony forming efficiency, 11596 (% inhibition of colony forming ability) [4]: 69.12%
- Reduced relative colony forming efficiency, HCT116 (% inhibition of colony forming ability) [5]: 78.09%
- Reduced relative colony forming efficiency, HepG2 (% inhibition of colony forming ability) [6]: 89.53%
- Reduced relative colony forming efficiency, MIA PaCa-2 (% inhibition of colony forming ability) [7]: 75.38%
- Reduced relative colony forming efficiency, MDA-MB-231 (% inhibition of colony forming ability) [8]: 41.64%
- Reduced relative colony forming efficiency, PC-3 (% inhibition of colony forming ability) [9]: 35.68%
- Reduced relative colony forming efficiency, T-47D (% inhibition of colony forming ability) [10]: 95.39%

Compound: CCTTGCCCTGAGAGATTCCT (antisense dC*dC*dT*dT*dG*dC*dC*dC*dT*dG*dA*dG*dA*dG*dA*dT*dT*dC*dC*dT) [AS-II-2083-20]
- Reduced relative colony forming efficiency, Hela S3 (% inhibition of colony forming ability) (Hela S3 cells): 84.58%
- Reduced relative colony forming efficiency, A549 (% inhibition of colony forming ability) (A549 lung cell carcinoma): 90.65%
- Reduced relative colony forming efficiency, A549 (% inhibition of colony forming ability) (A549 lung cell carcinoma; listed as AS-II-2083-20 *): 31.73%
- Reduced relative colony forming efficiency, Co1o320 (% inhibition of colony forming ability) [3]: 87.28%
- Reduced relative colony forming efficiency, Co1o320 (% inhibition of colony forming ability) ([3]; listed as AS-II-2083-20 *): 52.54%
- Reduced relative colony forming efficiency, 11596 (% inhibition of colony forming ability) [4]: 82.98%
- Reduced relative colony forming efficiency, 11596 (% inhibition of colony forming ability) ([4]; listed as AS-II-2083-20 *): 49.37%
- Reduced relative colony forming efficiency, HCT116 (% inhibition of colony forming ability) [5]: 87.46%
- Reduced relative colony forming efficiency, HCT116 (% inhibition of colony forming ability) ([5]; listed as AS-II-2083-20 *): 41.16%
- Reduced relative colony forming efficiency, HepG2 (% inhibition of colony forming ability) [6]: 93.64%
- Reduced relative colony forming efficiency, HepG2 (% inhibition of colony forming ability) ([6]; listed as AS-II-2083-20 *): 46.14%
- Reduced relative colony forming efficiency, MIA PaCa-2 (% inhibition of colony forming ability) [7]: 71%
- Reduced relative colony forming efficiency, MDA-MB-231 (% inhibition of colony forming ability) [8]: 68.88%
- Reduced relative colony forming efficiency, PC-3 (% inhibition of colony forming ability) [9]: 32.03%
- Reduced relative colony forming efficiency, T-47D (% inhibition of colony forming ability) [10]: 89.32%
- Reduced relative colony forming efficiency, T-47D (% inhibition of colony forming ability) ([10]; listed as AS-II-2083-20 *): 43.61%
- Reduced relative colony forming efficiency, T24 (% inhibition of colony forming ability) [11]: 82.43%
- Reduced relative colony forming efficiency, T24 (% inhibition of colony forming ability) ([11]; listed as AS-II-2083-20 *): 9.52%

Compound: CCc1c2c(nc3ccc(OC(=O)N4CCC(N5CCCCC5)CC4)cc13)-c1cc3c(c(=O)n1C2)COC(=O)[C@]3(O)CC [CPT-11, Irinotecan, reference compound]
- Tumour weight as % of saline control [12]: 36%
- Tumour weight as % of saline control [13]: 47%

Compound: CN(C)/N=N/c1[nH]cnc1C(N)=O [DTIC, dacarbazine, reference compound]
- Tumour weight as % of saline control [14]: 68%
